Laboratory results reported in patent US20230190689A1, “METHODS AND COMPOSITIONS FOR INDUCING BROWN ADIPOGENESIS” (ENERGESIS PHARMACEUTICALS, INC., priority 2020, published 2023).
Counter-ions that a name gives are not always drawn.

What was measured:
[1] = system: CD34+ brown adipocyte progenitor cells; assay: Multiplexed TaqMan real-time PCR of UCP1 and PPARγ2 mRNA (normalized to cyclophilin A) to quantify differentiation of CD34+ cells into brown adipocytes; type: cell-based, human; conditions: in vitro; first screen at 10 μM, actives retested at 1 nM to 50 μM
Excerpt: A robust method, previously disclosed, was used for detection of CD34+ cell differentiation into brown adipocytes by simultaneously quantifying mRNA species corresponding to the brown adipocyte marker UCP1, the adipocyte marker PPARγ2, and the “housekeeping” gene cyclophilin A which was used as the internal control.
This method permits analysis of a large number of samples to identify agents that enhance the differentiation of CD34+ cells into brown adipocytes. When differentiated into brown adipocytes, CD34+ cells express much higher levels of UCP1 and PPARγ2 mRNA for a given level of cyclophilin A. UCP1 and PPARγ2 mRNA levels normalized to cyclophilin A mRNA levels give an indication of the level of differentiation of the CD34+ cells into brown adipocytes, independent of the total number of cells in the sample.
Quantification of UCP1, PPARγ2 and cyclophilin A mRNA by multiplexed TaqMan real-time PCR was thus used to quantify differentiation of the CD34+ cells into brown adipocytes.
UCP1 is the key protein in brown adipocytes responsible for uncoupled respiration and is also highly specific for brown adipocyte differentiation. It is expressed exclusively by fully differentiated brown adipocytes and not by the CD34+ progenitor cells. We used a real-time semi-quantitative RT PCR-based assay for detection of UCP1 expression, in order to screen for brown adipocyte recruiters. […] The assay has the added advantage of allowing light microscopic visualization of the distinct morphological changes accompanying differentiation into brown adipocytes. This serves as further confirmation of differentiation.
(§1) Cells were seeded at 10,000 per cm^2 (48-well tissue culture, Chemglass #CLS-3500-048), cultured until confluency (1-4 days) at 37° C. in Endothelial cell growth medium-2 (EGM2) (BulletKit growth medium, Lonza #CC-3162) and until differentiation (6-12 more days). After 1-4 days in EGM2 media the cells were incubated with test agents (or positive controls) for 2-3 days (from day −3 or −2 to day 0). Rosiglitazone (1 μM) and rhBMP7 (6.3 nM) were used as reference agents (positive controls). Then (on day 0) the culture media (containing the test agents or positive controls) was removed, and minimal adipogenic medium (MDM) was added and the cells were left to differentiate of 6-12 days. The MDM media is a modification of the adipogenic media described by Rodriguez et al., and contains: DMEM/Ham's F-12 50/50 Mix (3.151 g/1, 17.5 mM D-glucose, 3.651 g/l L-glutamine) (Cellgro #10-090-CV), 5 μg/ml (0.86 μM) insulin, 1 μM dexamethasone, 100 μM 3-isobutyl-1-methylxanthine, 0.2 nM 3,3′,5-triiodo-L-thyronine, 10 μg/ml (127 nM) transferrin, and 1% penicillin-streptomycin. Adipocyte scores were determined by light microscopy and defined as the number of cells, on a per well basis, that contain multilocular lipid droplets, at the end of the differentiation of the cells, approximately 6 to 12 days following the end of compound treatment and switch into MDM media.
Total RNA was prepared from cells using PureLink RNA Isolation Kit (Invitrogen #12183-016). Alternatively, cells were simply lyzed by freezing (−80° C.). First strand cDNA were synthesized using the High Capacity cDNA Reverse Transcription kit (Applied Biosystems, Foster City, Calif.) and random primers.
Quantitative real-time PCR was performed using an Applied Biosystems StepOnePlus™ instrument, TaqMan Gene Expression Master Mix (Applied Biosystems #4369016), and custom TaqMan gene expression probes and primers for human uncoupling protein-1 “UCP1” (GenBank NM_021833) and for human peptidylprolyl isomerase A “cyclophilin A” (GenBank NM_021130).
Cyclophilin A was used as a control to account for any variations due to the efficiency of reverse transcription. Arbitrary units were determined by normalizing target mRNA levels to cyclophilin A mRNA levels (based on Cts).

[2] = system: CD34+ cells; assay: Light microscopy of CD34+ cells for brown adipocyte differentiation (multilocular lipid-containing cells); type: cell-based, human; conditions: CD34+ cells 6 days following the end of compound treatment and switch into MDM media
Experimental: as §1
Pictures of cells were taken using a hand-held digital camera (Nikon Coolpix 950) and inverted microscope (Nikon TMS) used for cell culture observations; images were optimized using Paint.net version 4.0 functions for Auto-Level Brightness and Contrast.

[3] = system: CD34+ cells; assay: Quantification of UCP1 protein by fluorescence immunohistochemistry (IHC); type: cell-based, human
Experimental: Culturing and differentiation of CD34+ cells into brown adipocytes were performed using adipogenic differentiation medium lacking (Minimal Differentiation Medium, MDM) or containing 1 μM rosiglitazone (Reference Differentiation Medium, RDM). After 15 days of differentiation cells were fixed with 4% Paraformaldehyde PBS pH 7.4, and incubated with a UCP1 antibody (Abcam ab23841) and Alexafluor 488 goat anti-rabbit antibody to quantify relative UCP1 levels (green) according to standard protocols. Prior to fixation of cells, nuclei were labeled with 5 μM DAPI (blue) for 10 minutes. Each treatment condition was evaluated in triplicate in a 96-well plate corresponding to approximately 360-480 cells for each data point in total. The InCell 1000 Developer Toolbox software was used to develop an automated cell detection script to measure UCP1 signal intensity, using the nuclei and cytoplasm detection algorithms. As a readout, total intensity of UCP1 signal within the cell was used, normalized to cell number.

[4] = system: DIO mice; assay: DIO mouse study of metabolic health, once-daily oral gavage for 28 to 56 days; type: in vivo, C57Bl/6 mice; conditions: oral gavage once a day, bezafibrate 60 mg/kg, oxaprozin 50 mg/kg, vs vehicle
Experimental: Obesity and insulin resistance, an early stage in the development of type 2 diabetes (or pre-diabetes), was induced in C57Bl/6 mice by feeding the mice with a high fat diet (Research diet, Cat #D12492, 60/a fat kcal) for 12 weeks starting at 6 weeks of age. The mice were maintained at 22-23° C. with abundant bedding material, maintaining the animals in an environmental temperature close to their thermoneutrality, starting 2 weeks prior to the dosing period and for the full dosing period with a 12 h/12 h light/dark cycle.
Mice were dosed once per day by oral gavage (200 μl per mouse), first for 3 days with the vehicle (PBS+0.5% CMC+0.1% Tween-80) as acclimation for running into the study, then with either vehicle alone or testing material dissolved in the vehicle for […] (4 to 8 weeks).
Body weight was recorded every 3 days, body composition (fat and lean mass with EchoMRI) was assessed at the end of the study (University of Cincinnati Mouse Metabolic Phenotyping Center), blood glucose level (measured with a glucometer) was monitored 3-5 days before (baseline) and at the end of the dosing period.
At the end of the dosing period, animals were fasted for 6 hours and euthanized by CO2, blood was collected, and plasma was isolated and saved at −20° C. Plasma glucose, insulin and leptin levels were assessed 3-5 days before (baseline) and at the end of the dosing period (mice were fasted for 6 hours before all plasma collection) (University of Cincinnati Mouse Metabolic Phenotyping Center). Insulin sensitivity was determined using the homeostasis model assessment of insulin resistance (HOMA-IR). HOMA-IR=(plasma insulin [microIU/ml] x plasma glucose [mM])/22.5.
The mice were maintained on a high fat diet (60% calories from fat) throughout the study. An overnight fast was performed the last night of the study in preparation for glucose tolerance testing.

Compound	differentiation of brown adipocyte progenitor cells into brown adipocytes, as indicated by expression of UCP1 and PPARγ2 [1]	agents identified by quantification of UCP1 protein by fluorescence IHC [3]	also measured
CN1c2ccccc2C(NCCCCCCC(=O)O)c2ccc(Cl)cc2S1(=O)=O (centres unmarked) [tianeptine, Tianeptine]	promote the differentiation of brown adipocyte progenitor cells into brown adipocytes	–	brown adipocyte formation by light microscopy [2]: promote brown adipocyte formation
O=C(CCCN1CCC2(CC1)C(=O)NCN2c1ccccc1)c1ccc(F)cc1 [Spiperone]	–	identified using this technique	–
CCC1=C(C)CN(C(=O)NCCc2ccc(S(=O)(=O)NC(=O)N[C@H]3CC[C@H](C)CC3)cc2)C1=O [Glimepiride]	promote the differentiation of brown adipocyte progenitor cells into brown adipocytes	–	–
O=C(O)/C=C/c1ccc(Cn2ccnc2)cc1 [ozagrel, (2E)−3-{4-[(1H-imidazol-1-yl)methyl]phenyl}prop-2-enoic acid]	promote the differentiation of brown adipocyte progenitor cells into brown adipocytes	–	brown adipocyte formation by light microscopy [2]: promote brown adipocyte formation
O=C(O)Cc1ccccc1Nc1c(Cl)cccc1Cl [Diclofenac]	promote the differentiation of brown adipocyte progenitor cells into brown adipocytes	–	–
COc1ccc2c(c1)c(CC(=O)O)c(C)n2C(=O)c1ccc(Cl)cc1 [Indomethacin]	promote the differentiation of brown adipocyte progenitor cells into brown adipocytes	–	–
COC(=O)[C@H]1[C@H]2C[C@@H]3c4[nH]c5cc(OC)ccc5c4CCN3C[C@H]2C[C@@H](OC(=O)c2cc(OC)c(OC)c(OC)c2)[C@@H]1OC [Reserpine]	–	identified using this technique	–
N=C(N)NC(=O)Cc1c(Cl)cccc1Cl [Guanfacine hydrochloride]	–	identified using this technique	–
Cc1cccc(Nc2ccccc2C(=O)O)c1C [Mefenamic acid]	promote the differentiation of brown adipocyte progenitor cells into brown adipocytes	–	–
CCCCC[C@H](O)/C=C/[C@H]1[C@H](O)CC(=O)[C@@H]1CCCCCCC(=O)O [alprostadil, Alprostadil]	promote the differentiation of brown adipocyte progenitor cells into brown adipocytes	–	brown adipocyte formation by light microscopy [2]: promote brown adipocyte formation
Cc1ccc(Cl)c(Nc2ccccc2C(=O)O)c1Cl [Meclofenamate]	promote the differentiation of brown adipocyte progenitor cells into brown adipocytes	–	–
COc1ccc2c(c1)C(=O)N(CCc1ccc(S(=O)(=O)NC(=O)NC3CCCCC3)cc1)C(=O)C2(C)C [gliquidone, Gliquidone]	promote the differentiation of brown adipocyte progenitor cells into brown adipocytes	–	brown adipocyte formation by light microscopy [2]: promote brown adipocyte formation
CCSc1ccc2c(c1)N(CCCN1CCN(C)CC1)c1ccccc1S2 [Thiethylperazine]	–	identified using this technique	–
O=C(O)c1cccnc1Nc1cccc(C(F)(F)F)c1 [Niflumic acid]	promote the differentiation of brown adipocyte progenitor cells into brown adipocytes	–	–
CC(C(=O)O)c1ccc2c(c1)CC(=O)c1ccccc1S2 (centres unmarked) [zaltoprofen, 2-(6-Oxo-5H-benzo[b][1]benzothiepin-3-yl)propanoic acid]	promote the differentiation of brown adipocyte progenitor cells into brown adipocytes	–	brown adipocyte formation by light microscopy [2]: promote brown adipocyte formation
CCN(CC)CCNC(=O)c1cc(S(C)(=O)=O)ccc1OC [Tiapride hydrochloride]	–	identified using this technique	–
O=C(O)CCc1nc(-c2ccccc2)c(-c2ccccc2)o1 [oxaprozin, 3-(4,5-Diphenyloxazol-2-yl)propionic acid]	promote the differentiation of brown adipocyte progenitor cells into brown adipocytes	–	body fat mass ([4]; MRI): significant decreases; body weight [4]: significant decreases; glycemia [4]: significant decreases; plasma insulin [4]: significant decreases; plasma leptin [4]: significant decreases
CCOC(=O)Oc1c(OC)cc(C(=O)O[C@@H]2C[C@@H]3CN4CCc5c([nH]c6cc(OC)ccc56)[C@H]4C[C@@H]3[C@H](C(=O)OC)[C@H]2OC)cc1OC [Syrosingopine]	–	identified using this technique	–
NC(N)=Nc1nc(CSCCC(N)=NS(N)(=O)=O)cs1 [Famotidine]	–	identified using this technique	–
COc1cc2c(c(OC)c1OC)-c1ccc(OC)c(=O)cc1[C@@H](NC(C)=O)CC2 [Colchicine]	–	identified using this technique	–
COc1ccc2c(c1)c(CC(=O)OCC(=O)O)c(C)n2C(=O)c1ccc(Cl)cc1 [Acemethacin]	promote the differentiation of brown adipocyte progenitor cells into brown adipocytes	–	–
CN(C)C(=N)N=C(N)N [Metformin]	–	identified using this technique	–
